From PMC3174134, “Lucanthone and Its Derivative Hycanthone Inhibit Apurinic Endonuclease-1 (APE1) by Direct Protein Binding” (PLoS ONE, 2011)

Assays:
APE1 [1] = molecular target: T1, APE1 (Homo sapiens, UniProt P27695); test: APE1 expression and cleavage in U251 1-5 overexpressor cells pretreated with cycloheximide, Western blot; assay type: cell-based; settings: for Cleavage of APE1 (25 kDa fragment): 10 µg/ml cycloheximide 4 h, then 25-100 µM drug 2 h
Experimental: (§1) Total purified protein concentration was determined by the ratio of A280/A260. 250 ng of APE1 treated with lucanthone or hycanthone (0.05–100 µM) for 2 h at 37°C in final volume of 30 µl were mixed with an equal volume of gel loading buffer (0.001% bromophenol blue, 4% SDS, 10% 2-ME, 20% glycerol, and 125 mM Tris pH 6.8) and denatured at 95°C for 5 min. Total protein concentration in cell extracts was determined using the Bradford assay (BioRad, Hercules, CA) and 25 µg of total protein from soluble or insoluble cell fractions were mixed with an equal volume of gel loading buffer (0.001% bromophenol blue, 4% SDS, 10% 2-ME, 20% glycerol, and 125 mM Tris pH 6.8) and denatured at 95°C for 5 min. This mixture was separated by SDS-PAGE (4% stacking, 7.5% resolving gel) for 2–3 h at 40 mA on a BioRad MiniPROTEAN II Electrophoresis Cell. To detect proteins, proteins were transferred onto a trans-Blot nitrocellulose membrane (0.45 µm; BioRad) overnight at 4°C at 15 mA in standard Tris-Glycine buffer containing 20% ethanol. Membranes were probed using polyclonal anti-APE1 or polyclonal anti-©-tubulin at 1/1,000 dilution in TTBS (0.1% Tween 20 in TBS (pH 7.5)) with secondary, anti-rabbit HRP-conjugated antibody used at 1/30,000 dilution to detect APE1 and ©-tubulin protein control. Chemi-luminescence was developed using an ECL kit according to the manufacturer's instructions and detected by exposing the blot to HyperfilmECL for 30 s–3 min. (GE Healthcare Biosciences, Piscataway, NJ).
Western blotting was carried out by 7.5% SDS-PAGE of cell extracts (20 µg total protein per lane) either from APE1 overexpresser clone 5 pretreated with 2.5–200 µM concentration of lucanthone/CRT0044876 or recombinant APE1 for 2 h at 37°C in presence of protease inhibitor cocktail (2 tablets (Roche, # 11836153001) containing mixture of several protease inhibitors with broad inhibitory specificity for serine, cysteine and metalloproteases in all systems, dissolved in 20 ml of APE1 buffer). […]

APE1 [2] = molecular target: T1, APE1; test: EMSA (gel mobility shift) of APE1 DNA binding capacity with THF-containing substrate; assay type: biochemical; design: the full length APE1 protein was successfully expressed and purified; made in house; host or cells: E. coli BL21/DE3; settings: 100 µM drug preincubated with APE1 30 min
Experimental: In order to elucidate whether lucanthone and hycanthone could inhibit APE1 by interfering with APE1-DNA interaction through their DNA intercalation ability, we measured the DNA binding capacity of APE1 in the presence of lucanthone and hycanthone by incubating different concentrations of APE1 (10 nM and 25 nM) with 100 µM of lucanthone and/or hycanthone for 30 min and subsequently incubating the mixture with 25 nM of THF-containing substrate at 25°C in binding buffer (50 mM HEPES, pH 7.5, 150 mM NaCl, 0.1 mg/ml BSA, 0.5 mM EDTA and 1 mM DTT) for 30 min. THF stands for tetrahydrofuran that represents a synthetic abasic site. This is commonly inserted into an oligonucleotide substrate for measuring APE1 cleavage activity. 5′-incision of THF by APE1 results in a residue that mimics reduced 5′-deoxyribose phosphate group. Since THF group lacks the 1′-OH group, it blocks β-elimination that is required for mediating any dRP lyase activity. The sequence of the APE1 substrate with THF group is 5′[…]-3′ as described by Liu et al.
APE1-DNA complex was then separated from unbound substrate DNA by electrophoresis under native conditions in a 1% agarose-0.1% acrylamide gel at 4°C for 1.5 h as described previously [50]–[51].

[3] = molecular target: E.coli endonuclease IV (Nfo) (Escherichia coli, UniProt P0A6C1); test: Circular dichroism of E.coli Nfo with lucanthone; settings: 140 µM lucanthone, 37°C, 60 min
[4] = test system: APE1 mutants F266A, F266C, F266A/W280A, D210N; test: Circular dichroism of APE1 mutant proteins with lucanthone; design: species or system human; settings: 140 µM lucanthone, 14 µM protein, 37°C, 60 min
Experimental: (§2) APE1 and its mutant proteins (10 mg/ml), 50 µl (500 µg) (14 µM) in APE1 buffer (50 mM HEPES, pH 7.4, 150 mM KCl, 5 mM MgCl2), were mixed with lucanthone/hycanthone (1 mg/ml), 50 µl (50 µg), 140 µM and incubated at 37°C for 60 min and far UV-CD spectra were recorded at NSLS U11 beam line at BNL. Lucanthone and hycanthone were also scanned as drug controls. The scanning parameters used were a 0.001 cm path length quartz cell, scanning wavelengths from 260 to 170 nm, bandwidth of 0.5 nm, digital integration time of 1 s, time constant of 200 ms, step size of 1 nm, and sensitivity of 200 µV. The data were corrected with blank subtraction from APE1 buffer alone. The secondary structure for APE1 with or without lucanthone or hycanthone was analyzed using CDSSTR program DICHROWEB [38].

[5] = molecular target: T2, APE1 mutants F266A, F266C, F266A/W280A, D210N (Homo sapiens, UniProt P27695, F266A/W280A); test: as above; settings: 140 µM lucanthone, 14 µM protein, 37°C, 60 min
T2 construct: made in house
T2 sequence (P27695 2-318 F266A/W280A): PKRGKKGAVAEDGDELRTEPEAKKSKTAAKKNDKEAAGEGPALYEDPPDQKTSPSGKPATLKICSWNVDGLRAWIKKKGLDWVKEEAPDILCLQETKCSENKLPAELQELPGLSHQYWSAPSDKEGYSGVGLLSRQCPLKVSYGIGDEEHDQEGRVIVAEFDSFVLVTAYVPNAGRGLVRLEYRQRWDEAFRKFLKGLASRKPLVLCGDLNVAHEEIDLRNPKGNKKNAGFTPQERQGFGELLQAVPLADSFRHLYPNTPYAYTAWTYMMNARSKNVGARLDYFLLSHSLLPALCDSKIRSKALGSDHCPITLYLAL
Experimental: as §2

tubulin = test: Tubulin stability in U251 1-5 whole cell extracts, Western blot; settings: lucanthone 2.5-100 µM; CRT at 200 µM
Experimental: as §1, with “Membranes were probed using polyclonal anti-APE1 or polyclonal anti-©-tubulin at 1/1,000 dilution in TTBS (0.1% Tween 20 in TBS (pH 7.5)) with secondary, anti-rabbit HRP-conjugated antibody used at 1/30,000 dilution to detect APE1 and ©-tubulin protein control.” left out, “(GE Healthcare Biosciences, Piscataway, NJ).” left out

[6] = molecular target: T3, recombinant full length APE1 (Homo sapiens, UniProt P27695); test: Cleavage of recombinant full length APE1, Western blot
T3 construct: the full length APE1 protein was successfully expressed and purified; made in house; host or cells: E. coli BL21/DE3
T3 sequence (P27695 whole entry): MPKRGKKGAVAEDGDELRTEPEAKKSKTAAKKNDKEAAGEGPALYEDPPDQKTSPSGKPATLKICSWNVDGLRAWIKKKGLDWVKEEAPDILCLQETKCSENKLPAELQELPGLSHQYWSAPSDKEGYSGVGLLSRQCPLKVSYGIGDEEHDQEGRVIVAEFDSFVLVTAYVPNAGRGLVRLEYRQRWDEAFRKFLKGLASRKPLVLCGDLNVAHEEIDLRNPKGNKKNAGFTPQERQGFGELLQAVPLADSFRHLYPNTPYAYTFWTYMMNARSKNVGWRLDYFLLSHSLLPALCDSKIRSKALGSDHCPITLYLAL
Experimental: as §1, with “Membranes were probed using polyclonal anti-APE1 or polyclonal anti-©-tubulin at 1/1,000 dilution in TTBS (0.1% Tween 20 in TBS (pH 7.5)) with secondary, anti-rabbit HRP-conjugated antibody used at 1/30,000 dilution to detect APE1 and ©-tubulin protein control.” left out, “(GE Healthcare Biosciences, Piscataway, NJ).” left out

APE1 mutant proteins [7] = molecular target: T4, APE1 mutant proteins (Homo sapiens, UniProt P27695, W280S); test: Cleavage of mutant APE1 proteins by lucanthone, Western blot; settings: 100 µM lucanthone, 37°C, 2 h
T4 construct: made in house
T4 sequence (P27695 2-318 W280S): as the sequence (P27695 2-318 F266A/W280A) above, with A265F, A279S counted along it
Experimental: as §1, with “Membranes were probed using polyclonal anti-APE1 or polyclonal anti-©-tubulin at 1/1,000 dilution in TTBS (0.1% Tween 20 in TBS (pH 7.5)) with secondary, anti-rabbit HRP-conjugated antibody used at 1/30,000 dilution to detect APE1 and ©-tubulin protein control.” left out, “(GE Healthcare Biosciences, Piscataway, NJ).” left out

APE1 mutant proteins [8] = test: as above; design: species or system human; settings: 100 µM lucanthone, 37°C, 2 h
Experimental: as §1, with “Membranes were probed using polyclonal anti-APE1 or polyclonal anti-©-tubulin at 1/1,000 dilution in TTBS (0.1% Tween 20 in TBS (pH 7.5)) with secondary, anti-rabbit HRP-conjugated antibody used at 1/30,000 dilution to detect APE1 and ©-tubulin protein control.” left out, “(GE Healthcare Biosciences, Piscataway, NJ).” left out

T1 sequence (P27695 whole entry, the tested form may be a part): as the sequence (P27695 whole entry) above

CCN(CC)CCNc1ccc(CO)c2sc3ccccc3c(=O)c12 [hycanthone]
Cleavage of APE1 (25 kDa fragment) (APE1 [1]): induce cleavage of APE1
Inhibition of DNA binding capacity of APE1 (APE1 [2]): not at all

CCN(CC)CCNc1ccc(C)c2sc3ccccc3c(=O)c12 [lucanthone, 1-[2-diethylaminoethylamino]-4-methylthioxanthen-9-one]
Cleavage of APE1 (25 kDa fragment) (APE1 [1]): induce cleavage of APE1
De novo APE1 synthesis (APE1 [1]; 10 µg/ml cycloheximide 4 h pretreatment): not affected significantly
Inhibition of DNA binding capacity of APE1 (APE1 [2]): marginally inhibited
Conformational change of E.coli Nfo (CD) [3]: little conformational changes
Conformational change of wild type and D210N active site mutant APE1 (CD) [4]: able to induce conformational changes
Conformational change of double mutant F266A/W280A (CD) [5]: almost no conformational change
Effect on tubulin protein (tubulin): unaffected
Lucanthone-induced cleavage of APE1 in presence of radical quenchers ([6]; 10 mM TRIS, 100 µM ascorbic acid or N-acetyl cysteine (purified APE1), 1% DMSO (cell extracts)): significantly inhibited
Cleavage of recombinant APE1 ([6]; 10-50 µM, 37°C, 2 h): increase in the formation of the 25 kDa fragment
Cleavage of W280S mutant (APE1 mutant proteins [7]): significant cleavage
Cleavage of hydrophobic site mutants except W280S (APE1 mutant proteins [8]): did not undergo cleavage
